According to patent US20260021084A1, “METHOD OF TREATING ORGAN DISEASES OR DISORDERS WITH ASK1 INHIBITORS” (Seal Rock Therapeutics, Inc., priority 2022, published 2026):

Columns and labels:
Format in all cases: in vivo
[1] = Organ distribution of ASK1 inhibitor in rats after intravenous administration; details: male, Sprague-Dawley, rat, single IV 10 mg/kg
Protocol: The objective of this study was to investigate organ (liver, heart, kidney, pancreas, spleen and skin) distribution of ASK1 inhibitor in male Sprague Dawley rats following a single intravenous (IV) administration at a dose of 10 mg/kg. Three rats are administered intravenously with a solution formulation of ASK1 inhibitor 2-(6-(4-cyclopropyl-4H-1,2,4-triazol-3-yl)pyridin-2-yl)-5-(morpholine-4-carbonyl)isoindolin-1-one in 5% NMP, 15% Solutol HS-15, 20% PEG-400 and 60% HpBetaCD at 10 mg/kg dose. 2-(6-(4-Cyclopropyl-4H-1,2,4-triazol-3-yl)pyridin-2-yl)-5-(morpholine-4-carbonyl)isoindolin-1-one was prepared as described in US2018/0291002 which is herein incorporated by reference in its entirety.
(§1) Blood samples (approximately 120 μL) were collected under light isoflurane anesthesia from retro orbital plexus from a set of three rats at 1 h post IV injection. Immediately after blood collection, plasma was harvested by centrifugation at 4000 rpm, 10 min at […] and samples were stored at −70±10° C. until bioanalysis. Animals were sacrificed immediately followed by abdominal vena-cava cut open and whole body was perfused from heart using 10 mL of normal saline. After isolation, tissue samples were rinsed three times in ice cold normal saline (for 5-10 seconds/rinsed using ˜5-10 mL normal saline in disposable petri dish for each rinse, dried on blotting paper and weighed. Tissue (liver, heart, kidney, pancreas, spleen and skin) samples were homogenized using ice-cold phosphate buffer saline (pH−7.4). Total homogenate volume was five times the tissue weight. All homogenates were stored below −70±10° C. until bioanalysis.
(§2) Plasma, liver, heart, kidney, pancreas, spleen, and skin samples were quantified by fit-for-purpose LC-MS/MS method.

[2] = Organ distribution of ASK1 inhibitor in rats after oral administration; details: male, Sprague-Dawley, rat, single oral 300 mg/kg
Protocol: The objective of this study was to investigate organ (liver, heart, kidney) distribution of ASK1 inhibitor in male Sprague Dawley rats following a single oral (PO) administration at a dose of 300 mg/kg. Three rats are administered orally with suspension formulation of ASK1 inhibitor 2-(6-(4-cyclopropyl-4H-1,2,4-triazol-3-yl)pyridin-2-yl)-5-(morpholine-4-carbonyl)isoindolin-1-one in a formulation of 0.1% Tween 80 and 99.9% HPMC (0.5% w/v in water) at 300 mg/kg dose.
as §1, with “PO administration.” for “IV injection.”, “kidney)” for “kidney, pancreas, spleen and skin)”
as §2

C57Bl/6 male mice = experiment: Efficacy of intravenous ASK1 inhibitor in liver injury due to acute alcoholic hepatitis (pyrazole/LPS model), plasma ALT; details: IV 0.3 and 3 mg/kg twice (3 hours apart), plasma 24 h after LPS
Protocol: The goal of the study is to evaluate whether IV administered ASK1 inhibitor can reduce liver injury due to acute alcoholic hepatitis (AH).
Seven-day acclimated C57Bl/6 male mice were treated with pyrazole for 2-days to induce CYP2E, prior to ASK1 inhibitor and lipopolysaccharide (LPS) administration. On day 3, ASK1 inhibitor 2-(6-(4-cyclopropyl-4H-1,2,4-triazol-3-yl)pyridin-2-yl)-5-(morpholine-4-carbonyl)isoindolin-1-one was administered by IV injection via tail vein at 0.3 and 3 mg/kg or vehicle twice (3 hours apart). LPS was administered intraperitoneally 30 min after the first dose of 2-(6-(4-cyclopropyl-4H-1,2,4-triazol-3-yl)pyridin-2-yl)-5-(morpholine-4-carbonyl)isoindolin-1-one. LPS administration emulates the inflammation by gut bacteria penetrating the intestinal wall following binge drinking. 24 h after LPS administration, plasma was collected for ALT analysis to estimate reduction of liver injury following intravenous treatment with ASK1 inhibitor.

[3] = heart / plasma, read-out: Tissue-to-plasma ratio, Heart
[4] = kidney / plasma, read-out: Tissue-to-plasma ratio, Kidney
[5] = liver / plasma, read-out: Tissue-to-plasma ratio, Liver

Kp at 1 h [1, 3]: 1.11
Kp at 1 h [1, 4]: 5.99
Kp at 1 h [1, 5]: 9.37
Kp at 1 h ([1]; pancreas / plasma, read-out: Tissue-to-plasma ratio, Pancreas): 0.99
Kp at 1 h ([1]; skin / plasma, read-out: Tissue-to-plasma ratio, Skin): 0.46
Kp at 1 h ([1]; spleen / plasma, read-out: Tissue-to-plasma ratio, Spleen): 0.89
Kp at 1 h [2, 3]: 1.13
Kp at 1 h [2, 4]: 7.47
Kp at 1 h [2, 5]: 13.8
SMILES: O=C(c1ccc2c(c1)CN(c1cccc(-c3nncn3C3CC3)n1)C2=O)N1CCOCC1 [2-(6-(4-cyclopropyl-4H-1,2,4-triazol-3-yl)pyridin-2-yl)-5-(morpholine-4-carbonyl)isoindolin-1-one]
lowered plasma ALT levels (C57Bl/6 male mice): 74-85%
